Data: publication PMC6197089, “Disubstituted piperazine analogues of trifluoromethylphenylpiperazine and methylenedioxybenzylpiperazine: analytical differentiation and serotonin receptor binding studies” (Forensic sciences research, 2018)
Read-outs that look alike come from different tables or passages of the source.

Columns and labels:
[1] = system: cardiomyoblast h9c2 cells; details: cited from earlier work
5-HT2A receptors [2] = target: T1, 5-HT2A receptors (Homo sapiens, UniProt P28223); assay: PDSP radioligand competition binding, 5-HT2A; details: for Ki: secondary binding assay, average of n = 3
T1 construct: University of North Carolina Psychoactive Drug Screening Project (PDSP), contract testing
T1 sequence (P28223 whole entry): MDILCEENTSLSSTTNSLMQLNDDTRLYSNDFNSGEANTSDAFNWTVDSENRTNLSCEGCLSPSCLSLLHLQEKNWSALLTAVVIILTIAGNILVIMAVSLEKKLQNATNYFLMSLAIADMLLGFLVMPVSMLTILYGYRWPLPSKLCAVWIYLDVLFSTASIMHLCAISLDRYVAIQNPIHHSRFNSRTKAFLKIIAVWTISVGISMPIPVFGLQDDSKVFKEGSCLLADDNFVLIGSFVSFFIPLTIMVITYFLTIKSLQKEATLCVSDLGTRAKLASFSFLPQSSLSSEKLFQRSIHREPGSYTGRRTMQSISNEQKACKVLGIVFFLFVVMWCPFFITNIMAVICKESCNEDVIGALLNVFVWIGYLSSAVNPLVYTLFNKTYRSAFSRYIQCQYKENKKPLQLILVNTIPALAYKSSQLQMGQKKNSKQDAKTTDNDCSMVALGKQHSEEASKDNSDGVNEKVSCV
Method: (§1) All six of the hybrid TFMPP–MDBP regioisomers reported in this manuscript were tested for their serotonin receptor and reuptake pump binding profiles by the University of North Carolina's Psychoactive Drug Screening Project (PDSP). Initially, each isomer was tested in a primary assay at a concentration of 10 umol/L for its ability to displace a standard ligand at each serotonin receptor and transporter subtype. […] The Ki (nmol/L) values were obtained from non-linear regression of radioligand competition binding isotherms in this assay and calculated from best-fit inhibitory concentration IC50 values using the Cheng–Prusoff equation. The reported values are the average of three (n = 3) determinations. Further experimental details regarding these receptor assays are presented in the PDSP Protocol Manual available at the PDSP website.

5-HT2C receptors = target: T2, 5-HT2C receptors (Homo sapiens, UniProt P28335); assay: PDSP radioligand competition binding, 5-HT2C; details: for Ki: secondary binding assay, average of n = 3
T2 construct: University of North Carolina Psychoactive Drug Screening Project (PDSP), contract testing
T2 sequence (P28335 33-458): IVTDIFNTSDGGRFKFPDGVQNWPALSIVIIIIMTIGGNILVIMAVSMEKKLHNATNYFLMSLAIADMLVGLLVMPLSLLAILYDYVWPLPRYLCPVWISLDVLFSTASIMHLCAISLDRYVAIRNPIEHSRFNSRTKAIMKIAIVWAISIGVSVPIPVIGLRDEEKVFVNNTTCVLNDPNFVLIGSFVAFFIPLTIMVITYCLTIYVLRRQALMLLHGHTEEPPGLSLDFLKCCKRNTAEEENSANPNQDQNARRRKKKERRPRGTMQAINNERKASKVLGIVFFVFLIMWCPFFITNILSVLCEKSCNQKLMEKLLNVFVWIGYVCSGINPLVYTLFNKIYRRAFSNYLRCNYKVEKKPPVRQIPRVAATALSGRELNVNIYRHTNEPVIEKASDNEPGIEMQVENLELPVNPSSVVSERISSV
Method: as §1

[3] = target: T3, SERT (serotonin reuptake pump) (Homo sapiens, UniProt P31645); assay: PDSP radioligand competition binding, SERT; details: for Ki: secondary binding assay, average of n = 3
T3 construct: University of North Carolina Psychoactive Drug Screening Project (PDSP), contract testing
T3 sequence (P31645 whole entry, species assumed): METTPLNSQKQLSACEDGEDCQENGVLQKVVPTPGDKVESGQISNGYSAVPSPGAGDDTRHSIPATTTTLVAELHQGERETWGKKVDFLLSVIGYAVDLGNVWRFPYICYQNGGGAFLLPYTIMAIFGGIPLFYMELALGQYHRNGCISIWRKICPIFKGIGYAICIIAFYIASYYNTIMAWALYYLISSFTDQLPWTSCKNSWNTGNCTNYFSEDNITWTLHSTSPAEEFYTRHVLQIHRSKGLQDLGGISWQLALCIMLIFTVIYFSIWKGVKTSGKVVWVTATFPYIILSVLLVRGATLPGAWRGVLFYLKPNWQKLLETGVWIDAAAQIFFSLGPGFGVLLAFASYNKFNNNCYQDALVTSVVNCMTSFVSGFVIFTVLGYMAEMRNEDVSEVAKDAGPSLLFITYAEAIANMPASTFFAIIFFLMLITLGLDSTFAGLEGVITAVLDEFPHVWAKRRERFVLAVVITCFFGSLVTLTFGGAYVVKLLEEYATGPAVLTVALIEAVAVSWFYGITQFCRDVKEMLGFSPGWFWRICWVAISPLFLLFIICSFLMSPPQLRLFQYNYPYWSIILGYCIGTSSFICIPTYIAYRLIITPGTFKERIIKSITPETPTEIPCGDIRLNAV
Method: as §1

5-HT2B receptors = target: T4, 5-HT2B receptors (Homo sapiens, UniProt P41595); assay: PDSP radioligand competition binding, 5-HT2B; details: secondary binding assay, average of n = 3
T4 construct: University of North Carolina Psychoactive Drug Screening Project (PDSP), contract testing
T4 sequence (P41595 whole entry): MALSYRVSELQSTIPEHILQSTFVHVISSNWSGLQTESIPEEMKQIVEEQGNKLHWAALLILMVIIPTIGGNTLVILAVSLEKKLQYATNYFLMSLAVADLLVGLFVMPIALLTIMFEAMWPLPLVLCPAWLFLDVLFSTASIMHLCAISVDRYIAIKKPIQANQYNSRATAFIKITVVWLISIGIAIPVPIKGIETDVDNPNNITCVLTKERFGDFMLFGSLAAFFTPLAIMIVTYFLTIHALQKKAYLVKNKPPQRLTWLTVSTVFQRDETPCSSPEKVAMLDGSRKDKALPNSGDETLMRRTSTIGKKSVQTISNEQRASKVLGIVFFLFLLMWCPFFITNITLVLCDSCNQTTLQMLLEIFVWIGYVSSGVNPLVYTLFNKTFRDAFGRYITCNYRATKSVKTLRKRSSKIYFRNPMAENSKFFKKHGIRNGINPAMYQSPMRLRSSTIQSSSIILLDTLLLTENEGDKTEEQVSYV
Method: as §1

5-HT7 receptors = target: T5, 5-HT7 receptors (Homo sapiens, UniProt P34969); assay: PDSP radioligand competition binding, 5-HT7; details: for Ki: secondary binding assay, average of n = 3
T5 construct: University of North Carolina Psychoactive Drug Screening Project (PDSP), contract testing
T5 sequence (P34969 whole entry): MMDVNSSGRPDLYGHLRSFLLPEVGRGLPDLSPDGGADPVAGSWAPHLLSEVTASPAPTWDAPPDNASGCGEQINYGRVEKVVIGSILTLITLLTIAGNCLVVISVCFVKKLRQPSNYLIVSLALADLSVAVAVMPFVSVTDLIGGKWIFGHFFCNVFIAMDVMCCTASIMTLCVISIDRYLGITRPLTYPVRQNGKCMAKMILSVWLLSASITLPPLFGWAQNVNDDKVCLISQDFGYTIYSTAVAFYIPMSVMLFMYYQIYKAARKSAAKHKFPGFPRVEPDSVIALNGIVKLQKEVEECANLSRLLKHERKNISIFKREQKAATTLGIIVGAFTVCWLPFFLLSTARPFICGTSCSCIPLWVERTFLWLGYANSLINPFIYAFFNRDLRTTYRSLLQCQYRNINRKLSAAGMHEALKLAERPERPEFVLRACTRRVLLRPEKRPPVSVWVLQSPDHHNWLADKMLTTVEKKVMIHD
Method: as §1

5-HT1A receptors [4] = target: T6, 5-HT1A receptors (Homo sapiens, UniProt P08908); assay: PDSP radioligand competition binding, 5-HT1A; details: secondary binding assay, average of n = 3
T6 construct: University of North Carolina Psychoactive Drug Screening Project (PDSP), contract testing
T6 sequence (P08908 1-422): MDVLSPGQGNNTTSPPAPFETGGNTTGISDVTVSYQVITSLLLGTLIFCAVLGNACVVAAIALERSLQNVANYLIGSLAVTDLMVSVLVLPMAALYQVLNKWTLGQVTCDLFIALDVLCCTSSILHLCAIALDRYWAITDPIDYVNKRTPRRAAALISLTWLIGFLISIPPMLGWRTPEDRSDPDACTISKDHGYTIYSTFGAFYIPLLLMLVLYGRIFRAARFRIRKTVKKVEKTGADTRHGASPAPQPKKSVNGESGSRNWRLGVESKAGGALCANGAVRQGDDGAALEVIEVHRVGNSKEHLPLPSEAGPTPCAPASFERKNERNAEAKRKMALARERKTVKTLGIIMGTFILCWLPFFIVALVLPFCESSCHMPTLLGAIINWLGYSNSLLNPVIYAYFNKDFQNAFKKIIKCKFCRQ
Method: as §1

[5] = system: other serotonin receptor subtypes; details: literature, no reference given; cited from earlier work
[6] = system: 5-HT1A, 5-HT1B, 5-HT1D and 5-HT2C receptors; details: literature, no reference given; cited from earlier work
5-HT1B receptors = details: literature value, no reference given; cited from earlier work
SERT = details: no reference given, cited from earlier work
5-HT1A receptors [7] = target: T6, 5-HT1A receptors; details: read-out: Ki, 5-HT1A; literature value, no reference given; cited from earlier work
5-HT2A receptors [8] = target: T1, 5-HT2A receptors; details: read-out: Ki, 5-HT2A; literature value, no reference given; cited from earlier work
5-HT2A receptor = details: literature, no reference given; cited from earlier work
[9] = system: dopamine and norepinephrine reuptake pumps; details: literature, no reference given; cited from earlier work
5-HT1D receptors = details: literature value, no reference given; cited from earlier work

Structure (SMILES)	Ki (5-HT2A receptors [2])	binding to 5-HT2C receptors, in words (5-HT2C receptors)	Ki (5-HT2C receptors)	Ki [3]	Ki (5-HT2B receptors)	binding by 5-HT7 receptors, in words (5-HT7 receptors)	Ki (5-HT7 receptors)	Ki (5-HT1A receptors [4])	other results
c1cc2c(cc1CN1CCNCC1)OCO2 [3,4-MDBP, 1-(3,4-methylenedioxybenzyl) piperazine]									intracellular calcium levels [1]: significant increase; mitochondrial membrane potential [1]: decrease
FC(F)(F)c1ccccc1N1CCN(Cc2cccc3c2OCO3)CC1 [Compound 1, 2-TFMPP-2,3-MDBP]	> 1000 nM	modest binding	868 nM	> 1000 nM	74.5 nM	bound by 5-HT7 receptors	165 nM	> 1000 nM	binding by 5-HT7 receptors, in words (5-HT7 receptors; listed as 2-TFMPP-2,3-MDBP): highest affinity
FC(F)(F)c1cccc(N2CCN(Cc3cccc4c3OCO4)CC2)c1 [Compound 2, 3-TFMPP-2,3-MDBP]	372 nM	modest binding	753 nM	> 1000 nM	203 nM	bound by 5-HT7 receptors	747 nM	864 nM	affinity at 5-HT2A receptors compared to 3-TFMPP, in words (5-HT2A receptors [2]): retained activity comparable to the parent designer drug
FC(F)(F)c1ccc(N2CCN(Cc3cccc4c3OCO4)CC2)cc1 [Compound 3, 4-TFMPP-2,3-MD]	> 1000 nM		> 1000 nM	> 1000 nM	870 nM		> 1000 nM	> 1000 nM	
FC(F)(F)c1cccc(N2CCNCC2)c1 [Compound 3-TFMPP, 1-(3-trifluoromethylphenyl) piperazine]									affinity for other serotonin receptor subtypes, in words [5]: does not show significant affinity; functional activity at all sites except 5-HT2A [6]: full agonist; Ki (5-HT1B receptors): 132 nM; EC50 (SERT; literature value, read-out: effective concentration (EC50) at SERT): 121 nM; serotonin release, in words (SERT; literature): promotes serotonin release; intracellular calcium levels [1]: significant increase; mitochondrial membrane potential [1]: decrease; Ki (5-HT1A receptors [7]): 288 nM; Ki (5-HT2A receptors [8]): 269 nM; functional activity at the 5-HT2A receptor (5-HT2A receptor): weak partial agonist or antagonist; effects on dopamine and norepinephrine reuptake pumps [9]: no effects; Ki (5-HT1D receptors): 282 nM
FC(F)(F)c1ccccc1N1CCN(Cc2ccc3c(c2)OCO3)CC1 [Compound 4, 2-TFMPP-3,4-MDBP]	> 1000 nM	modest binding	924 nM	> 1000 nM	81 nM	bound by 5-HT7 receptors	462 nM	> 1000 nM	
FC(F)(F)c1cccc(N2CCN(Cc3ccc4c(c3)OCO4)CC2)c1 [Compound 5, 3-TFMPP-3,4-MDBP]	> 1000 nM	modest binding	430 nM	> 1000 nM	116 nM	bound by 5-HT7 receptors	516 nM	188 nM	
FC(F)(F)c1ccc(N2CCN(Cc3ccc4c(c3)OCO4)CC2)cc1 [Compound 6, 4-TFMPP-3,4-MDBP]	> 1000 nM		> 1000 nM	722 nM	247 nM		> 1000 nM	> 1000 nM	affinity for SERT pumps, in words [3]: significant affinity; potency at SERT relative to monosubstituted 3-TFMPP [3]: about six-times less potent
